We go through 18 compounds from PubChem BioAssay AID292 (DTP/NCI, 2004).

In this experiment the test system is B6C3F1 mice, ip Sarcoma M5076, median survival T/C. Briefly: NCI In Vivo Anticancer Drug Screen. Data for tumor model Sarcoma M5076 (intraperitoneal) in B6C3F1 mice. To be noted: endpoint: median survival time, higher = longer survival. Here is the method: The antitumor activity of compounds was measured in mice bearing transplantable tumors. Survival or tumor size were measured and the results are expressed as the measurement made in the treated group (T) divided by the measurement made in the vehicle treated control group (C). The tumor model used in this assay is Sarcoma M5076 (intraperitoneal) in B6C3F1 mice

[1] abbreviates: dose: 50.0 mg/kg/injection, schedule: Q04DX004 (ip), vehicle: Klucel (hydroxypropylcellulose) (HPC).
[2] abbreviates: dose: 100.0 mg/kg/injection, schedule: Q04DX004 (ip), vehicle: Klucel (hydroxypropylcellulose) (HPC).
The mark [3] stands for this setting: dose: 200.0 mg/kg/injection, schedule: Q04DX004 (ip), vehicle: Klucel (hydroxypropylcellulose) (HPC).
Where [4] appears, read: dose: 75.0 mg/kg/injection, schedule: Q04DX004 (ip), vehicle: saline with Tween-80.
Setting [5] is: dose: 150.0 mg/kg/injection, schedule: Q04DX004 (ip), vehicle: saline with Tween-80.
[6] abbreviates: dose: 300.0 mg/kg/injection, schedule: Q04DX004 (ip), vehicle: saline with Tween-80.
The mark [7] stands for this setting: dose: 600.0 mg/kg/injection, schedule: Q04DX004 (ip), vehicle: saline with Tween-80.
The mark [8] stands for this setting: dose: 400.0 mg/kg/injection, schedule: Q04DX004 (ip), vehicle: Klucel (hydroxypropylcellulose) (HPC).
Setting [9] is: dose: 50.0 mg/kg/injection, schedule: Q04DX004 (ip), vehicle: saline.
The mark [10] stands for this setting: dose: 100.0 mg/kg/injection, schedule: Q04DX004 (ip), vehicle: saline.
[11] abbreviates: dose: 200.0 mg/kg/injection, schedule: Q04DX004 (ip), vehicle: saline.
Setting [12] is: dose: 400.0 mg/kg/injection, schedule: Q04DX004 (ip), vehicle: saline.
Where [13] appears, read: dose: 50.0 mg/kg/injection, schedule: Q04DX004 (ip), vehicle: water.
Setting [14] is: dose: 100.0 mg/kg/injection, schedule: Q04DX004 (ip), vehicle: water.

Where “and” joins values, the source holds several entries; their conditions need not be identical. Equal entries are not always repeated. Toxic doses and inconclusive results are not listed.

For the compound `CN1CCc2c(c3ccccc3c3ccccc23)C1`, the T/C is 114 % of control (dose: 75.0 mg/kg/injection, schedule: Q04DX004 (ip), vehicle: Klucel (hydroxypropylcellulose) (HPC)) and 122 % of control (dose: 150.0 mg/kg/injection, schedule: Q04DX004 (ip), vehicle: Klucel (hydroxypropylcellulose) (HPC)).
As for `Cc1c2c(ccc3ccccc32)c[n+]2ccccc12`, the T/C (dose: 1.5 mg/kg/injection, schedule: Q04DX004 (ip), vehicle: saline with Tween-80) is 97 % of control and 104 % of control and 109 % of control; the T/C (dose: 3.0 mg/kg/injection, schedule: Q04DX004 (ip), vehicle: saline with Tween-80) was 92 % of control and 97 % of control and 104 % of control; the T/C (dose: 6.0 mg/kg/injection, schedule: Q04DX004 (ip), vehicle: saline with Tween-80) was 92 % of control and 107 % of control and 115 % of control; the T/C (dose: 12.0 mg/kg/injection, schedule: Q04DX004 (ip), vehicle: saline with Tween-80) was 92 % of control.
For `O=C(Nc1cccnc1)c1ccc([N+](=O)[O-])s1`, the T/C is 102 % of control (dose: 3.0 mg/kg/injection, schedule: Q04DX004 (ip), vehicle: saline); 97 % of control (dose: 6.0 mg/kg/injection, schedule: Q04DX004 (ip), vehicle: saline); 96 % of control (dose: 12.0 mg/kg/injection, schedule: Q04DX004 (ip), vehicle: saline); 87 % of control (dose: 24.0 mg/kg/injection, schedule: Q04DX004 (ip), vehicle: saline); 89 % of control (dose: 48.0 mg/kg/injection, schedule: Q04DX004 (ip), vehicle: saline).
Turning to `N#CC1C(=O)NC(=S)NC1CCc1ccccc1` (stereo unspecified), the T/C under setting [1] is 95 % of control, the T/C under setting [2] is 100 % of control and the T/C under setting [3] was 108 % of control.
Turning to `Nc1nc2c(ncn2C2OC(CO)C(O)C2O)c(=O)[nH]1` (stereo unspecified), the T/C was 107 % of control under setting [4]; 114 % of control under setting [5]; 114 % of control under setting [6]; 114 % of control under setting [7]; 109 % of control (dose: 1200.0 mg/kg/injection, schedule: Q04DX004 (ip), vehicle: saline with Tween-80).
With `COC(=O)N1C2CCCCC2=NN(c2ccccc2)N1C(=O)OC` (stereo unspecified), the T/C under setting [1] was 96 % of control; the T/C under setting [2] was 101 % of control; the T/C under setting [3] is 99 % of control; the T/C under setting [8] is 95 % of control; the T/C (dose: 800.0 mg/kg/injection, schedule: Q04DX004 (ip), vehicle: Klucel (hydroxypropylcellulose) (HPC)) was 100 % of control.
Consider `N[C@@H](C[C@H]1CCC(=O)[C@@H]2O[C@H]12)C(=O)O`, for which the T/C by setting is: under setting [9], 97 % of control; under setting [10], 106 % of control; under setting [11], 117 % of control; under setting [12], 115 % of control.
For `COc1ccc(C[C@H](N)C(=O)NC2C(CO)OC(n3cnc4c(N(C)C)ncnc43)C2O)cc1` (stereo partly specified), in that order: 89 % of control, 117 % of control, 102 % of control and 108 % of control.
On to `CC[n+]1c([S-])nn(C)c1-c1cnccn1`, for which the T/C is 103 % of control (dose: 37.5 mg/kg/injection, schedule: Q04DX004 (ip), vehicle: saline with Tween-80); 107 % of control under setting [4]; 96 % of control under setting [5]; 112 % of control under setting [6]; 95 % of control under setting [7].
Regarding `C=CC1(C)CC(=O)C2(O)C(C)(O1)C(OC(C)=O)C(O)C1C(C)(C)CCC(O)C12C` (stereo unspecified), the T/C was 98 % of control (dose: 2.0 mg/kg/injection, schedule: Q04DX004 (ip), vehicle: DMSO); 104 % of control (dose: 4.0 mg/kg/injection, schedule: Q04DX004 (ip), vehicle: DMSO); 98 % of control (dose: 8.0 mg/kg/injection, schedule: Q04DX004 (ip), vehicle: DMSO); 96 % of control and 101 % of control (dose: 16.0 mg/kg/injection, schedule: Q04DX004 (ip), vehicle: DMSO); 95 % of control and 107 % of control (dose: 32.0 mg/kg/injection, schedule: Q04DX004 (ip), vehicle: DMSO).
Consider `NC(=O)c1c[se]c(C2OC(CO)C(O)C2O)n1` (stereo unspecified), for which the T/C was 96 % of control (dose: 25.0 mg/kg/injection, schedule: Q04DX004 (ip), vehicle: water); 100 % of control under setting [13]; 102 % of control under setting [14]; 106 % of control (dose: 200.0 mg/kg/injection, schedule: Q04DX004 (ip), vehicle: water); 113 % of control (dose: 400.0 mg/kg/injection, schedule: Q04DX004 (ip), vehicle: water).
For `Cc1nc(N)nc(N)c1-c1ccc(Cl)c(Cl)c1`, the T/C reads like this: (dose: 1.25 mg/kg/injection, schedule: Q04DX004 (ip), vehicle: saline) 105 % of control; (dose: 2.5 mg/kg/injection, schedule: Q04DX004 (ip), vehicle: saline) 100 % of control; (dose: 5.0 mg/kg/injection, schedule: Q04DX004 (ip), vehicle: saline) 102 % of control; (dose: 10.0 mg/kg/injection, schedule: Q04DX004 (ip), vehicle: saline) 113 % of control.
Regarding `O=NNc1cnccn1`, the T/C was 107 % of control (dose: 6.25 mg/kg/injection, schedule: Q04DX004 (ip), vehicle: water); 118 % of control and 123 % of control (dose: 12.5 mg/kg/injection, schedule: Q04DX004 (ip), vehicle: water); 150 % of control and 155 % of control under setting [13]; 196 % of control under setting [14].
Turning to `NC(=S)c1ncn(C2OC(COC=O)C(OC=O)C2OC=O)c1NC=O` (stereo unspecified), the T/C by setting is: (dose: 86.4 mg/kg/injection, schedule: Q04DX004 (ip), vehicle: Klucel (hydroxypropylcellulose) (HPC)) 182 % of control; (dose: 144.0 mg/kg/injection, schedule: Q04DX004 (ip), vehicle: Klucel (hydroxypropylcellulose) (HPC)) 174 % of control; (dose: 240.0 mg/kg/injection, schedule: Q04DX004 (ip), vehicle: Klucel (hydroxypropylcellulose) (HPC)) 184 % of control; under setting [8], 168 % of control and 198 % of control; (dose: 666.67 mg/kg/injection, schedule: Q04DX004 (ip), vehicle: Klucel (hydroxypropylcellulose) (HPC)) 229 % of control.
Consider `Clc1ccccc1C(Cc1c(Cl)cccc1Cl)Cn1ccnc1` (stereo unspecified), for which the T/C was 100 % of control (dose: 12.5 mg/kg/injection, schedule: Q04DX004 (ip), vehicle: saline with Tween-80); 101 % of control (dose: 25.0 mg/kg/injection, schedule: Q04DX004 (ip), vehicle: saline with Tween-80); 101 % of control (dose: 50.0 mg/kg/injection, schedule: Q04DX004 (ip), vehicle: saline with Tween-80); 93 % of control (dose: 100.0 mg/kg/injection, schedule: Q04DX004 (ip), vehicle: saline with Tween-80).
Consider `Nc1ccn([C@@H](C=O)C[C@@H](C=O)CO)c(=O)n1`, for which the T/C reads like this: (dose: 25.0 mg/kg/injection, schedule: Q04DX004 (ip), vehicle: saline) 99 % of control; under setting [9], 99 % of control; under setting [10], 103 % of control; under setting [11], 108 % of control; under setting [12], 118 % of control.
For `O=c1cc(-c2ccccc2)[nH]c2c1CCCC2`, the T/C under setting [4] was 91 % of control, the T/C under setting [5] is 99 % of control, the T/C under setting [6] was 106 % of control and the T/C under setting [7] was 98 % of control.
As to `O=C1c2ccccc2C(=O)c2c(NCCNCCO)ccc(NCCNCCO)c21`, the T/C runs as follows: (dose: 1.0 mg/kg/injection, schedule: Q04DX004 (ip), vehicle: saline) 112 % of control; (dose: 2.0 mg/kg/injection, schedule: Q04DX004 (ip), vehicle: saline) 120 % of control; (dose: 5.0 mg/kg/injection, schedule: Q04DX005 (ip), vehicle: saline) 234 % of control; (dose: 8.0 mg/kg/injection, schedule: Q04DX004 (ip), vehicle: saline) 158 % of control; (dose: 10.0 mg/kg/injection, schedule: Q04DX005 (ip), vehicle: saline) 319 % of control; (dose: 16.0 mg/kg/injection, schedule: Q04DX004 (ip), vehicle: saline) 174 % of control. For the same compound, the T/C (dose: 20.0 mg/kg/injection, schedule: Q04DX004 (ip), vehicle: suspension in saline) is 156 % of control and the T/C (dose: 40.0 mg/kg/injection, schedule: Q04DX004 (ip), vehicle: suspension in saline) is 172 % of control.
